Assay results: US20090062258A1, “FUSED PYRIMIDINE DERIVATIVE AND USE THEREOF” (Takeda Pharmaceutical Company Limited, priority 2005, published 2009)

target: T1, human GnRH receptor (Homo sapiens, UniProt P30968); assay: 125I-leuprorelin binding assay (binding inhibitory rate); details: 10 nM of the testing compound; 800 pM 125I-leuprorelin; 10 μg human GnRH receptor membrane fraction (CHO cells); room temperature 1 hour; read-out: Binding inhibitory ratio (%)
T1 construct: expressed in transfected cells; host or cells: CHO (Chinese Hamster Ovary) cells; membrane fraction
T1 sequence (P30968 1-328): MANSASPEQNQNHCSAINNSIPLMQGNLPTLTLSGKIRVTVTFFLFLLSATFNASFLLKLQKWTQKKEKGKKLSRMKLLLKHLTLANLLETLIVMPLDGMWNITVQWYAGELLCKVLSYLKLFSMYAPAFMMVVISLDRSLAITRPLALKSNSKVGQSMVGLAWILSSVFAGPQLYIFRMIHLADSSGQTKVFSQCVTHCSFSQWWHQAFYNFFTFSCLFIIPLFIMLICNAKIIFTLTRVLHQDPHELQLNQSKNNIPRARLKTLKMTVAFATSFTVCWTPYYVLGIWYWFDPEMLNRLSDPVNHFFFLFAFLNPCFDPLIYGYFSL
Procedure: 10 μL of a 3×10^−4 M aqueous solution of leuprorelin and 10 μL of 0.01 mg/mL lactoperoxidase were placed in a tube, and 10 μL (37 MBq) of a Na^125I solution was added thereto. After stirring, 10 μL of 0.001% H2O2 was added to allow the mixture to undergo a reaction at room temperature for 20 minutes. 700 μL of a 0.05% TFA solution was added to stop the reaction, and purification by reversed phase HPLC was carried out. The conditions for HPLC are described below. ^125I-leuprorelin was eluted at a retention time of 26 to 27 minutes.
Human GnRH receptor-expressing CHO cells were cultured until the cells were reached a 90% confluent state in a T-150 flask. The cells were separated using 0.02% EDTA-PBS and were centrifuged at 500×g for 5 minutes. A homogenate buffer for cells (10 mM NaHCO3, 1 mM EDTA, 1 mM PMSF, 0.5 μg/mL Pepstatin, 2 μg/mL Leupeptin, pH 7.4) was added to the cell pellet, and the mixture was homogenized with a Polytron homogenizer. After centrifugation of the homogenate at 4° C. and at 1000×g for 10 minutes, the supernatant was placed in an ultracentrifuge tube and was centrifuged at 4° C. and at 49,300×g for 1 hour to obtain a precipitate of a membrane fraction. This precipitate was suspended in an assay buffer (50 mM Tris-HCl, 150 mM NaCl, 5 mM EDTA, pH 7.4) and then dispensed and stored at −80° C., so that the suspension can be thawed every time it is taken for use.
A ^125I-leuprorelin binding assay was carried out using 200 μL of an assay buffer containing 10 μg of human GnRH receptor membrane fraction, 800 pM of ^125I-leuprorelin and 10 nM of the testing compound.
The non-specific binding radioactivity was measured in the presence of 1 μM of non-labeled leuprorelin. After leaving the mixture to stand at room temperature for 1 hour, ^125I-leuprorelin was captured on a GF/C filter (PerkinElmer, Inc.), and the filter was washed with ice-cold 50 mM Tris-HCl (pH 7.4) using a cell harvester. After drying the filter, a liquid scintillation cocktail for microplate was added, and the membrane-bound radioactivity was measured using a TopCount.
The value of (TB-SB)/(TB-NSB)×100 (SB: radioactivity upon addition of the compound, TB: maximum binding radioactivity, NSB: non-specific binding radioactivity) was calculated to determine the binding inhibitory rate in the presence of 10 nM of each testing material.

Q: Which inhibition at 0.01 µM does the source give for `CNC(=O)c1scc2[nH]c(=O)n(-c3cc(S(=O)(=O)N4CCCc5ccccc54)ccc3Cl)c(=O)c12` [Example 16, 3-[2-Chloro-5-(3,4-dihydroquinolin-1(2H)-ylsulfonyl)phenyl]-N-methyl-2,4-dioxo-1,2,3,4-tetrahydrothieno[3,4-d]pyrimidine-5-carboxamide] here?
A: 96%

Q: For `COC(=O)c1scc2[nH]c(=O)n(-c3cc(C(=O)N(c4cccc(C#N)c4Cl)C4CC4)sc3Cl)c(=O)c12` [Example 38, Methyl 3-(2-chloro-5-{[(2-chloro-3-cyanophenyl)(cyclopropyl)amino]carbonyl}-3-thienyl)-2,4-dioxo-1,2,3,4-tetrahydrothieno[3,4-d]pyrimidine-5-carboxylate], which inhibition at 0.01 µM is on record?
A: 95%

Q: `COC(=O)c1scc2[nH]c(=O)n(-c3cc(C(=O)N(c4cccc(Br)c4Cl)C4CC4)sc3Cl)c(=O)c12` [Example 37, Methyl 3-(5-{[(3-bromo-2-chlorophenyl)(cyclopropyl)amino]carbonyl}-2-chloro-3-thienyl)-2,4-dioxo-1,2,3,4-tetrahydrothieno[3,4-d]pyrimidine-5-carboxylate] was tested. Which inhibition at 0.01 µM did it give?
A: 100%

Q: `O=C(O)c1csc2[nH]c(=O)n(-c3cccc(S(=O)(=O)N4CCCc5ccccc54)c3)c(=O)c12` [Example 34 (3), 3-[3-(3,4-Dihydroquinolin-1(2H)-ylsulfonyl)phenyl]-2,4-dioxo-1,2,3,4-tetrahydrothieno[2,3-d]pyrimidine-5-carboxylic acid] was tested. Which inhibition at 0.01 µM did it give?
A: 100%

Q: With `N#Cc1cccc(N(C(=O)c2cc(-n3c(=O)[nH]c4csc(C(=O)O)c4c3=O)c(Cl)s2)C2CC2)c1Cl` [Example 40, 3-(2-Chloro-5-{[(2-chloro-3-cyanophenyl)(cyclopropyl)amino]carbonyl}-3-thienyl)-2,4-dioxo-1,2,3,4-tetrahydrothieno[3,4-d]pyrimidine-5-carboxylic acid] as the compound, how does the inhibition at 0.01 µM read?
A: 101%

Q: For `CC(O)c1scc2[nH]c(=O)n(-c3cccc(S(=O)(=O)N4CCCc5ccccc54)c3)c(=O)c12` (stereo not drawn) [Example 24, 3-[3-(3,4-Dihydroquinolin-1(2H)-ylsulfonyl)phenyl]-5-(1-hydroxyethyl)thieno[3,4-d]pyrimidin-2,4(1H,3H)-dione], which inhibition at 0.01 µM is on record?
A: 95%

Q: Which inhibition at 0.01 µM does the source give for `O=c1[nH]c2csc(CO)c2c(=O)n1-c1cc(S(=O)(=O)N2CCCc3ccccc32)cs1` [Example 31, 3-[4-(3,4-Dihydroquinolin-1(2H)-ylsulfonyl)-2-thienyl]-5-(hydroxymethyl)thieno[3,4-d]pyrimidin-2,4(1H,3H)-dione] here?
A: 100%

Q: For `N#Cc1cccc(N(C(=O)c2cc(-n3c(=O)[nH]c4csc(C(N)=O)c4c3=O)c(Cl)s2)C2CC2)c1Cl` [Example 41, 3-(2-Chloro-5-{[(2-chloro-3-cyanophenyl)(cyclopropyl)amino]carbonyl}-3-thienyl)-2,4-dioxo-1,2,3,4-tetrahydrothieno[3,4-d]pyrimidine-5-carboxamide], which inhibition at 0.01 µM is on record?
A: 100%

Q: For `Cc1nnc(-c2scc3[nH]c(=O)n(-c4cccc(S(=O)(=O)N5CCCc6ccccc65)c4)c(=O)c23)o1` [Example 12, 3-[3-(3,4-dihydroquinolin-1(2H)-ylsulfonyl)phenyl]-5-(5-methyl-1,3,4-oxadiazol-2-yl)thieno[3,4-d]pyrimidin-2,4(1H,3H)-dione], which inhibition at 0.01 µM is on record?
A: 72%

Q: With `CC(C)(C)OC(=O)CNC(=O)c1scc2[nH]c(=O)n(-c3cccc(S(=O)(=O)N4CCCc5ccccc54)c3)c(=O)c12` [Example 7 (1), N-({3-[3-(3,4-Dihydroquinolin-1(2H)-ylsulfonyl)phenyl]-2,4-dioxo-1,2,3,4-tetrahydrothieno[3,4-d]pyrimidin-5-yl}carbonyl) glycine tert-butyl ester] as the compound, how does the inhibition at 0.01 µM read?
A: 92%

Q: Which inhibition at 0.01 µM does the source give for `O=c1[nH]c2ccsc2c(=O)n1-c1cccc(S(=O)(=O)N2CCCc3ccccc32)c1` [Example 1, 3-[3-(3,4-Dihydroquinolin-1(2H)-ylsulfonyl)phenyl]thieno[3,2-d]pyrimidin-2,4(1H,3H)-dione] here?
A: 86%

Q: How did the inhibition at 0.01 µM turn out when `N#Cc1cccc(N(C(=O)c2cc(-n3c(=O)[nH]c4csc(CO)c4c3=O)c(Cl)s2)C2CC2)c1Cl` [Example 39, 5-Chloro-N-(2-chloro-3-cyanophenyl)-N-cyclopropyl-4-[5-(hydroxymethyl)-2,4-dioxo-1,2-dihydrothieno[3,4-d]pyrimidine-3(4H)-yl]thiophene-2-carboxamide] was run?
A: 101%

Q: For `COC(=O)c1scc2[nH]c(=O)n(-c3cc(S(=O)(=O)N4CCCc5ccccc54)cs3)c(=O)c12` [Example 30, Methyl 3-[4-(3,4-dihydroquinolin-1(2H)-ylsulfonyl)-2-thienyl]-2,4-dioxo-1,2,3,4-tetrahydrothieno[3,4-d]pyrimidine-5-carboxylate], which inhibition at 0.01 µM is on record?
A: 110%

Q: Which inhibition at 0.01 µM does the source give for `O=C(O)c1scc2[nH]c(=O)n(-c3cc(S(=O)(=O)N4CCCCc5sccc54)sc3Cl)c(=O)c12` [Example 6, 3-[2-Chloro-5-(5,6,7,8-tetrahydro-4H-thieno[3,2-b]azepin-4-ylsulfonyl)-3-thienyl]-2,4-dioxo-1,2,3,4-tetrahydrothieno[3,4-d]pyrimidine-5-carboxylic acid] here?
A: 97%

Q: Which inhibition at 0.01 µM does the source give for `CCN(C(=O)c1csc(-n2c(=O)[nH]c3csc(C(=O)O)c3c2=O)c1)c1ccccc1` [Example 33-2, 3-(4-{[Ethyl(phenyl)amino]carbonyl}-2-thienyl)-2,4-dioxo-1,2,3,4-tetrahydrothieno[3,4-d]pyrimidine-5-carboxylic acid] here?
A: 85%
